# In PMC10337138 (Acta Neuropathologica Communications, 2023):
# Key:
# Conditions in all cases: 1 mM ATP; inhibitor
# DCLK1/DCAML1 = DCLK1/DCAML1 (Homo sapiens, UniProt O15075)
# Experimental: (§1) Kinase selectivity panel Kinome profiling was conducted by AssayQuant Technologies (Marlboro, MA) using Sox chromophore technology and Sox-based peptide substrates developed for human kinases in a 384-well format. Compounds were tested at 1 µM in the presence of 1 mM ATP.
# EPHA3 = EPHA3 (Homo sapiens, UniProt P29320)
# Experimental: as §1
# MAPK8/JNK1 = MAPK8/JNK1 (Homo sapiens, UniProt P45983)
# MAPK8/JNK1, sequence (P45983 whole entry): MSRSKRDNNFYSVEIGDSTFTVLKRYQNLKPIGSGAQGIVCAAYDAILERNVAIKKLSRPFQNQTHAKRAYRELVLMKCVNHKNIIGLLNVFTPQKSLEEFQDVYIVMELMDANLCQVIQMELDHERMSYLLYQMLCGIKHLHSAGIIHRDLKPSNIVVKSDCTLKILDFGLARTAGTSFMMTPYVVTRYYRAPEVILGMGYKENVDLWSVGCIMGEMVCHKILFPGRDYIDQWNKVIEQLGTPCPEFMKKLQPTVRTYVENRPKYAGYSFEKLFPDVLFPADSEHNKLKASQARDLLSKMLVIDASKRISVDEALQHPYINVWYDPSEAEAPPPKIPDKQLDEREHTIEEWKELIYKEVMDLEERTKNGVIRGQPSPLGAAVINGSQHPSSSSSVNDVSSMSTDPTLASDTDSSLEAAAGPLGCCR
# Experimental: as §1
# EIF2AK1/HRI = EIF2AK1/HRI (Homo sapiens, UniProt Q9BQI3)
# Experimental: as §1
# MAP3K2 = MAP3K2 (Homo sapiens, UniProt Q9Y2U5)
# Experimental: as §1
# HASPIN = HASPIN (Homo sapiens, UniProt Q8TF76)
# Experimental: as §1
# ERBB4/HER4 = ERBB4/HER4 (Homo sapiens, UniProt Q15303)
# Experimental: as §1
# MST1R/RON = MST1R/RON (Homo sapiens, UniProt Q04912)
# Experimental: as §1
# PRKCG/PKCG = PRKCG/PKCG (Homo sapiens, UniProt P05129)
# Experimental: as §1
# ROS = target: T1, ROS (Homo sapiens, UniProt P08922)
# T1 construct: gene ROS1
# Experimental: as §1
# FER = FER (Homo sapiens, UniProt P16591)
# FER, sequence (P16591 whole entry): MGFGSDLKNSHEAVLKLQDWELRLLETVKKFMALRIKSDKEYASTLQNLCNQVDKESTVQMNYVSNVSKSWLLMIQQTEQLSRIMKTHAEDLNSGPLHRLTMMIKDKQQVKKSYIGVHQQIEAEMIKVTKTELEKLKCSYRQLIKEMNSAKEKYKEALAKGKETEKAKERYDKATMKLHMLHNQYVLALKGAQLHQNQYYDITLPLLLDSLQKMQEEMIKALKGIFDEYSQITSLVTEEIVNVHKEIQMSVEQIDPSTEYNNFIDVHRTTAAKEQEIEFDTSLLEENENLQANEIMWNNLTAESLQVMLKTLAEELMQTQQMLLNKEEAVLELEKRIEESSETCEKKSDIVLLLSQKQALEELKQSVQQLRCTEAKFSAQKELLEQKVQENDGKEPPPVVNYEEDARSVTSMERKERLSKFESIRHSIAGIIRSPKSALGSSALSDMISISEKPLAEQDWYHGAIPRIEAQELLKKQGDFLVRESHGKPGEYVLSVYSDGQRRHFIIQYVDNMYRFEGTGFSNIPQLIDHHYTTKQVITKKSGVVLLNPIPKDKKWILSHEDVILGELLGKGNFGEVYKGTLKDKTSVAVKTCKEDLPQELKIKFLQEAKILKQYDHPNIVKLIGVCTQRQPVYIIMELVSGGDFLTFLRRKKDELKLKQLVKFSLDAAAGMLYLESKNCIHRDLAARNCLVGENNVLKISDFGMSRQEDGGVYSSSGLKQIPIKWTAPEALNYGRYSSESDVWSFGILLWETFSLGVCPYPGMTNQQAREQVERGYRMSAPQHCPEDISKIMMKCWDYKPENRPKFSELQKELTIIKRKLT
# Experimental: as §1
# TSSK6 = TSSK6 (Homo sapiens, UniProt Q9BXA6)
# Experimental: as §1
# MAPKAPK2/MK2 = MAPKAPK2/MK2 (Homo sapiens, UniProt P49137)
# Experimental: as §1
# PDHK4 = target: T2, PDHK4 (Homo sapiens, UniProt Q16654)
# T2 construct: gene PDK4
# Experimental: as §1
# PINK1 = PINK1 (Homo sapiens, UniProt Q9BXM7)
# PINK1, sequence (Q9BXM7 whole entry): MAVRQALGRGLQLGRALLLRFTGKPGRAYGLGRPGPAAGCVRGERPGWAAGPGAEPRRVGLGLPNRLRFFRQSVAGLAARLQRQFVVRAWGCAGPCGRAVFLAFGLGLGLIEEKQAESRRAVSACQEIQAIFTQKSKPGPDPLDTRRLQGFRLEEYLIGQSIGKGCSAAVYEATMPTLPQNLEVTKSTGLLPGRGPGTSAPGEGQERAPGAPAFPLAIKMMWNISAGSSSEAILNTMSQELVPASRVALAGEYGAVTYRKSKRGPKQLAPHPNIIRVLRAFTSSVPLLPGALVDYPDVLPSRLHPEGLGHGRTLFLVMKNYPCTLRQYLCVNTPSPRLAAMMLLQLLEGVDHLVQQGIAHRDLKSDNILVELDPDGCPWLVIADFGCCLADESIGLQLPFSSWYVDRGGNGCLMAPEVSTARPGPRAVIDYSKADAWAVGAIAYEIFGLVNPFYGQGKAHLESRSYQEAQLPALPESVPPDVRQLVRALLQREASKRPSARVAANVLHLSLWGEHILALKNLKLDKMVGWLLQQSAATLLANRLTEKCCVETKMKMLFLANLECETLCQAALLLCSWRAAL
# Experimental: as §1
# MAP3K10 = MAP3K10 (Homo sapiens, UniProt Q02779)
# Experimental: as §1
# RAF1 = RAF1 (Homo sapiens, UniProt P04049)
# RAF1, sequence (P04049 whole entry): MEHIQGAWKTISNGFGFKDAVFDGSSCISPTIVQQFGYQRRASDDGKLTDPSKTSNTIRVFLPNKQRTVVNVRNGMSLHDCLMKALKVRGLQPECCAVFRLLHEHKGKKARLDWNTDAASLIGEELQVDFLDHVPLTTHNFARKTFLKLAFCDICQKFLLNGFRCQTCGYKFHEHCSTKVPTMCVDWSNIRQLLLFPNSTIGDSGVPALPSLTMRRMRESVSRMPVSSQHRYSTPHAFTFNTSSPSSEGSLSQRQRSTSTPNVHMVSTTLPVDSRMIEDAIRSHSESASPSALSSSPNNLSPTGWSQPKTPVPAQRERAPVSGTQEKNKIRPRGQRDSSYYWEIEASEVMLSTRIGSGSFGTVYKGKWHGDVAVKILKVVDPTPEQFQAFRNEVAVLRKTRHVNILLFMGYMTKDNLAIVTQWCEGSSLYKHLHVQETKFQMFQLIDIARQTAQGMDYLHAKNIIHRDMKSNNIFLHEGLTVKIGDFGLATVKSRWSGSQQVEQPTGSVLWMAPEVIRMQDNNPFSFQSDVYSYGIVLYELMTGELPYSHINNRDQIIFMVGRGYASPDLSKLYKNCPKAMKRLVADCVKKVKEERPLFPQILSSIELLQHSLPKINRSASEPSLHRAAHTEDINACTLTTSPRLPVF
# Experimental: as §1
# SRMS = SRMS (Homo sapiens, UniProt Q9H3Y6)
# Experimental: as §1
# JAK3(JH1) = JAK3(JH1) (Homo sapiens, UniProt P52333)
# JAK3(JH1), sequence (P52333 whole entry): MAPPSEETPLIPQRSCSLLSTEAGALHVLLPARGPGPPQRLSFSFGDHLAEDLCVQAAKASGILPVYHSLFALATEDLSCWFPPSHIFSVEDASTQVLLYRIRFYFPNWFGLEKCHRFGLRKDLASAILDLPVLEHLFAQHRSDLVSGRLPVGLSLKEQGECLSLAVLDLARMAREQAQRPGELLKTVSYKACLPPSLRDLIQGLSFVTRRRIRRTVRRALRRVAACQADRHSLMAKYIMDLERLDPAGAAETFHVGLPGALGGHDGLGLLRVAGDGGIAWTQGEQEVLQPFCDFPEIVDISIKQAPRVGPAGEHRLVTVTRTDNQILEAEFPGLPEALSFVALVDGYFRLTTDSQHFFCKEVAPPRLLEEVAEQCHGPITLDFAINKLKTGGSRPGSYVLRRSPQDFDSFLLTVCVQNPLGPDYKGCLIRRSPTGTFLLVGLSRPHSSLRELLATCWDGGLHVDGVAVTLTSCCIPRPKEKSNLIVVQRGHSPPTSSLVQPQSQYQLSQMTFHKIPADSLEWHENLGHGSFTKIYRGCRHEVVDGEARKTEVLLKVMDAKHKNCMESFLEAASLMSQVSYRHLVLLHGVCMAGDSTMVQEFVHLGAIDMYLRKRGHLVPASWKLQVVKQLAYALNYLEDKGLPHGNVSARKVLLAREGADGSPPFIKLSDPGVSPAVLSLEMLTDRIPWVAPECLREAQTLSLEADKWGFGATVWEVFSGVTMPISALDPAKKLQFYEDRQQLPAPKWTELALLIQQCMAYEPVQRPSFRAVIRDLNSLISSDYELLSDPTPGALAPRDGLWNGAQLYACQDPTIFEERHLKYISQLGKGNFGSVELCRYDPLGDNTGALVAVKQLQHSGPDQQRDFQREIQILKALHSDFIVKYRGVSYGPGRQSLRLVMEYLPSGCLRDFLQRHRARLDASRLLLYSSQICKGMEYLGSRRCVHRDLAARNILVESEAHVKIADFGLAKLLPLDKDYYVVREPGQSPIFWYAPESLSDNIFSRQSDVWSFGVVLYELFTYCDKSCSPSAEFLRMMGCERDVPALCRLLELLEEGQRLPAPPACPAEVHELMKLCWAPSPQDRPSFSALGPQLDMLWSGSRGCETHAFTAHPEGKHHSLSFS
# Experimental: as §1
# TNIK = TNIK (Homo sapiens, UniProt Q9UKE5)
# Experimental: as §1
# LIMK2 = LIMK2 (Homo sapiens, UniProt P53671)
# Experimental: as §1
# EPHA4 = EPHA4 (Homo sapiens, UniProt P54764)
# Experimental: as §1
# MAP3K14 = MAP3K14 (Homo sapiens, UniProt Q99558)
# Experimental: as §1
# CDK14 = CDK14 (Homo sapiens, UniProt O94921)
# Experimental: as §1
# MAPK10/JNK3 = MAPK10/JNK3 (Homo sapiens, UniProt P53779)
# Experimental: as §1
# PLK2 = PLK2 (Homo sapiens, UniProt Q9NYY3)
# Experimental: as §1
# NUAK1 = NUAK1 (Homo sapiens, UniProt O60285)
# Experimental: as §1
# MAPK9/JNK2 = MAPK9/JNK2 (Homo sapiens, UniProt P45984)
# Experimental: as §1
# PRKX = PRKX (Homo sapiens, UniProt P51817)
# PRKX, sequence (P51817 whole entry): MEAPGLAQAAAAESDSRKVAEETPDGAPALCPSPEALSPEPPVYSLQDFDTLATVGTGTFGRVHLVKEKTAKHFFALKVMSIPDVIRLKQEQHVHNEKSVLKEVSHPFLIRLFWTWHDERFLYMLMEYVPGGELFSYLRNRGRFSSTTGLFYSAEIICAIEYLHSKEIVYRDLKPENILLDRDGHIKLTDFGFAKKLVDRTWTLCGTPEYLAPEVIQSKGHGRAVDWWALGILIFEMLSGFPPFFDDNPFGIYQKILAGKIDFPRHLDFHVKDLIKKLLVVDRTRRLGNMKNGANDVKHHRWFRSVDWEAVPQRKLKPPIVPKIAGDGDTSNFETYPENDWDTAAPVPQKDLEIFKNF
# Experimental: as §1
# DRAK2 = target: T3, DRAK2 (Homo sapiens, UniProt O94768)
# T3 construct: gene STK17B
# Experimental: as §1
# NEK1 = NEK1 (Homo sapiens, UniProt Q96PY6)
# Experimental: as §1
# SIK2 = SIK2 (Homo sapiens, UniProt Q9H0K1)
# Experimental: as §1
# DAPK2 = DAPK2 (Homo sapiens, UniProt Q9UIK4)
# DAPK2, sequence (Q9UIK4 whole entry): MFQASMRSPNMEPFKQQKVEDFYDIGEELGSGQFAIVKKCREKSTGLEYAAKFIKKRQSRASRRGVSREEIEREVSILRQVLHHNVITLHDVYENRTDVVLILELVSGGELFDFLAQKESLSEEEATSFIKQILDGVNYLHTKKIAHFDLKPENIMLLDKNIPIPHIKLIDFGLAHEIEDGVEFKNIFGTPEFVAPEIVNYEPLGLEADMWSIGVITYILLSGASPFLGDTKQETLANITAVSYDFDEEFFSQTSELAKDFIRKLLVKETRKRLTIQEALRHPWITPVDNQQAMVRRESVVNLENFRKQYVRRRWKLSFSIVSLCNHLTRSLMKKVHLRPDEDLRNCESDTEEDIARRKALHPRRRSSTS
# Experimental: as §1
# CAMK1D = CAMK1D (Homo sapiens, UniProt Q8IU85)
# Experimental: as §1
# PRKCI/PKCI = PRKCI/PKCI (Homo sapiens, UniProt P41743)
# PRKCI/PKCI, sequence (P41743 whole entry): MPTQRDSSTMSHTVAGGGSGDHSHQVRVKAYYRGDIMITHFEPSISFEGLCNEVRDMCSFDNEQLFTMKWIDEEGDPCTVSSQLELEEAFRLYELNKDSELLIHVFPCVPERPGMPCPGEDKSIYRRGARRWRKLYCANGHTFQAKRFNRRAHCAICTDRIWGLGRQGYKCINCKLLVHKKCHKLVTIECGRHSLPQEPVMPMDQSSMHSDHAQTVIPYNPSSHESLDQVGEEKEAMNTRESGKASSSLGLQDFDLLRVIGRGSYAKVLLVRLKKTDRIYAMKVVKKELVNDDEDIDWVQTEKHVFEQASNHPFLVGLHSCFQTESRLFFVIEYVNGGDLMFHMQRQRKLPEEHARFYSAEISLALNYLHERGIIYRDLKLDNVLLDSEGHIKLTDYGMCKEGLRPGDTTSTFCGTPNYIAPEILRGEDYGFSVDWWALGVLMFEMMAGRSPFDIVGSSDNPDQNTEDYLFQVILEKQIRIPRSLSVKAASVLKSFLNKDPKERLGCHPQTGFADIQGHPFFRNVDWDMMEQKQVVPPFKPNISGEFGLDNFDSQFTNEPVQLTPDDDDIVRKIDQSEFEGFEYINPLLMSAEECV
# Experimental: as §1
# CSNK1G3/CK1G3 = CSNK1G3/CK1G3 (Homo sapiens, UniProt Q9Y6M4)
# Experimental: as §1
# MYLK3 = MYLK3 (Homo sapiens, UniProt Q32MK0)
# Experimental: as §1
# RET = RET (Homo sapiens, UniProt P07949)
# Experimental: as §1
smiles,measurement,setting,value
C=CC(=O)N1CCC[C@@H](n2nc(-c3ccc(Oc4ccccc4)cc3)c3c(N)ncnc32)C1 [Ibrutinib],"1 µM GBD00276 (ibrutinib), % inhibition",DCLK1/DCAML1,-29.46%
same,"1 µM GBD00276 (ibrutinib), % inhibition",EPHA3,12.32%
same,"1 µM GBD00276 (ibrutinib), % inhibition",MAPK8/JNK1,10.25%
same,"1 µM GBD00276 (ibrutinib), % inhibition",EIF2AK1/HRI,-3.537%
same,"1 µM GBD00276 (ibrutinib), % inhibition",MAP3K2,6.175%
same,"1 µM GBD00276 (ibrutinib), % inhibition",HASPIN,7.214%
same,"1 µM GBD00276 (ibrutinib), % inhibition",ERBB4/HER4,98.2%
same,"1 µM GBD00276 (ibrutinib), % inhibition",MST1R/RON,1.112%
same,"1 µM GBD00276 (ibrutinib), % inhibition",PRKCG/PKCG,-20.25%
same,"1 µM GBD00276 (ibrutinib), % inhibition",ROS,2.485%
same,"1 µM GBD00276 (ibrutinib), % inhibition",FER,6.712%
same,"1 µM GBD00276 (ibrutinib), % inhibition",TSSK6,2.044%
same,"1 µM GBD00276 (ibrutinib), % inhibition",MAPKAPK2/MK2,8.023%
same,"1 µM GBD00276 (ibrutinib), % inhibition",PDHK4,-54.44%
same,"1 µM GBD00276 (ibrutinib), % inhibition",PINK1,-6.021%
same,"1 µM GBD00276 (ibrutinib), % inhibition",MAP3K10,-7.966%
same,"1 µM GBD00276 (ibrutinib), % inhibition",RAF1,-13.81%
same,"1 µM GBD00276 (ibrutinib), % inhibition",SRMS,81.42%
same,"1 µM GBD00276 (ibrutinib), % inhibition",JAK3(JH1),10.34%
same,"1 µM GBD00276 (ibrutinib), % inhibition",TNIK,-56.63%
same,"1 µM GBD00276 (ibrutinib), % inhibition",LIMK2,11.59%
same,"1 µM GBD00276 (ibrutinib), % inhibition",EPHA4,-4.922%
same,"1 µM GBD00276 (ibrutinib), % inhibition",MAP3K14,-11.44%
same,"1 µM GBD00276 (ibrutinib), % inhibition",CDK14,3.829%
same,"1 µM GBD00276 (ibrutinib), % inhibition",MAPK10/JNK3,-5.63%
same,"1 µM GBD00276 (ibrutinib), % inhibition",PLK2,-1.576%
same,"1 µM GBD00276 (ibrutinib), % inhibition",NUAK1,-1.079%
same,"1 µM GBD00276 (ibrutinib), % inhibition",MAPK9/JNK2,-5.789%
same,"1 µM GBD00276 (ibrutinib), % inhibition",PRKX,11.47%
same,"1 µM GBD00276 (ibrutinib), % inhibition",DRAK2,1.899%
same,"1 µM GBD00276 (ibrutinib), % inhibition",NEK1,-6.252%
same,"1 µM GBD00276 (ibrutinib), % inhibition",SIK2,-7.577%
same,"1 µM GBD00276 (ibrutinib), % inhibition",DAPK2,19.22%
same,"1 µM GBD00276 (ibrutinib), % inhibition",CAMK1D,1.984%
same,"1 µM GBD00276 (ibrutinib), % inhibition",PRKCI/PKCI,5.685%
same,"1 µM GBD00276 (ibrutinib), % inhibition",CSNK1G3/CK1G3,15.91%
same,"1 µM GBD00276 (ibrutinib), % inhibition",MYLK3,0.8658%
same,"1 µM GBD00276 (ibrutinib), % inhibition",RET,15.14%
